Results: patent US6376670B1, “Quinoline-indole antimicrobial agents, uses and compositions related thereto” (Sepracor Inc., priority 1997, dated 2002)
Read-outs that look alike come from different tables or passages of the source.

How the values were obtained:
Streptococcus pneumoniae = test: Determination of MIC values (BHI broth, 96 well microtiter plate); type: cell-based; conditions: BHI broth; for MIC: Streptococcus pneumoniae, read-out: MIC S. pneu
How it was run: (§1)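 Here, each test series spans final concentrations of 25 to 0.39 µg/mL in BHI broth, with DMSO as diluent. Plates seeded at 10^5–10^6 cells/mL are kept at 37° C and approx. 7-10% CO2 for about 16 hours before growth is scored.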

[1] = system: methicillin-resistant Staphylococcus aureus (MRSA); test: as above; type: cell-based; conditions: BHI broth; for MIC: Staphylococcus aureus, MRSA, read-out: MIC MRSA
How it was run: as §1

[2] = system: vancomycin-resistant Enterococcus spp. (VRE); test: as above; type: cell-based; conditions: BHI broth; for MIC: Enterococcus, VRE, read-out: MIC VREF
How it was run: as §1

[3] = Acute in vivo toxicity in mice, intraperitoneal injection; conditions: in 10% w/v hydroxypropyl-β-cyclodextrin in 0.9% w/v saline, 5 mice
Method: Solutions of compounds in 10% w/v hydroxypropyl-β-cyclodextrin in 0.9% w/v saline were prepared. Doses of 40 mg/kg or 120 mg/kg of each compound were administered to mice (5 mice/compound/dose) via intraperitoneal injections. The mice […] for seven days.

S. aureus (ATCC 25923) = test: MIC against S. aureus strain; type: cell-based; conditions: Staphylococcus aureus, ATCC25923
Method: (§2) Stock solutions of compounds are prepared with a concentration of 10 mg/mL. These solutions are then diluted 1:4 to give a concentration of 2.5 mg/mL. The compounds are then serially diluted 1:2 for 6 iterations. The concentrations made for each compound are 2.5, 1.25, 0.625, 0.3125, 0.156, 0.078, and 0.039 mg/mL. A control sample (no compound) is run along with each compound tested. All dilutions are made in DMSO.
(§3) All wells of a 96 well microtiter plate are filled with 100 μL of BHI (Brain-Heart Infusion) broth. Columns on the plate are labeled 1-12, and rows are labeled A-H. Each column of wells is used to test one series of diluted compounds. Into each well of 100 μL of BHI broth, 1 μL of diluted compound is placed for a 1:100 dilution. This makes the final concentration of each drug series 25, 12.5, 6.25, 3.125, 1.56, 0.78, 0.39, and 0 μg/mL.
(§4) Test Organism: A sterile 15 mL screw cap tube is filled wth 3 mL of BHI broth. Next, 2-3 colonies of test organism are inoculated into the tube. The tube is then incubated at 37° C. in a CO2 (approx. 7%) atmosphere jar. The organisms are allowed to grow to the density of a 0.5 McFarland standard (10^8 cells/mL). The organism is then inoculated into each well of the microtiter plate containing the diluted compounds to be tested for MIC. The inoculum is 1 μL in volume and represents 10^5 to 10^6 cells/mL.
(§5) After inoculation the plates are covered and incubated at 37° C. and approx. 7-10% CO2 atmosphere overnight (about 16 hours). The plates are then observed for growth, the well with the lowest concentration of drug and no observable growth represents the well determining the MIC.

S. aureus (ATCC 29213) = test: MIC against S. aureus strain; type: cell-based; conditions: Staphylococcus aureus, ATCC29213
Method: as §2, §3, §4, §5

S. aureus (ATCC 33591) = test: MIC against S. aureus strain; type: cell-based; conditions: Staphylococcus aureus, ATCC33591
Method: as §2, §3, §4, §5

S. aureus (ATCC 33592) = test: MIC against S. aureus strain; type: cell-based; conditions: Staphylococcus aureus, ATCC33592
Method: as §2, §3, §4, §5

[4] = 37° C., overnight (about 16 hours)
[5] = 16 h, 37° C., overnight (about 16 hours)

Clc1ccc2[nH]cc(-c3cc(Cl)c4ccccc4n3)c2c1 [Example 342]
MIC (Streptococcus pneumoniae; S. pneu, overnight 37° C.): < 7 µg/mL
MIC ([1]; overnight 37° C.): < 7 µg/mL
MIC ([2]; VREF, overnight 37° C.): > 25 µg/mL
Mice Surviving on Day 7 ([3]; 40 mg/kg intraperitoneal): 100%
Mice Surviving on Day 7 ([3]; 120 mg/kg intraperitoneal): 100%

NCCNC(=O)c1cc(-c2c[nH]c3ccc(Br)cc23)nc2ccc(C#CCN3CCCCC3)cc12 [Example 418]
MIC (Streptococcus pneumoniae; 37° C., about 16 hours): < 7 µg/mL
MIC ([1]; 16 h, 37° C., about 16 hours): < 7 µg/mL
MIC ([2]; 16 h, 37° C., about 16 hours): < 7 µg/mL
Mice Surviving on Day 7 ([3]; 40 mg/kg intraperitoneal): 100%
Mice Surviving on Day 7 ([3]; 120 mg/kg intraperitoneal): 0%

Fc1ccc2c(-c3ccc4cc(Cl)ccc4n3)c[nH]c2c1 [Example 193]
MIC (Streptococcus pneumoniae; [4]): < 7 µg/mL
MIC [1, 5]: < 7 µg/mL
MIC [2, 5]: < 7 µg/mL
Mice Surviving on Day 7 ([3]; 40 mg/kg intraperitoneal): 100%
Mice Surviving on Day 7 ([3]; 120 mg/kg intraperitoneal): 100%

NCc1cc(-c2c[nH]c3ccc(Br)cc23)nc2cc(Cl)ccc12 [compound 7]
MIC (S. aureus (ATCC 25923)): < 7 µg/mL
MIC (S. aureus (ATCC 29213)): < 7 µg/mL
MIC (S. aureus (ATCC 33591)): < 7 µg/mL
MIC (S. aureus (ATCC 33592)): < 7 µg/mL

NCCNC(=O)c1cc(-c2c[nH]c3ccc(Br)cc23)nc2ccc(I)cc12 [Example 107]
MIC (Streptococcus pneumoniae; [4]): < 7 µg/mL
MIC [1, 5]: < 7 µg/mL
MIC [2, 5]: < 7 µg/mL
Mice Surviving on Day 7 ([3]; 40 mg/kg intraperitoneal): 100%
Mice Surviving on Day 7 ([3]; 120 mg/kg intraperitoneal): 0%

NCCNC(=O)c1cc(-c2c[nH]c3ccc(Br)cc23)nc2cc(Cl)c(C#CCN3CCCCC3)cc12 [Example 380]
MIC (Streptococcus pneumoniae; S. pneu, overnight 37° C.): < 7 µg/mL
MIC ([1]; overnight 37° C.): < 7 µg/mL
MIC ([2]; VREF, overnight 37° C.): < 7 µg/mL
Mice Surviving on Day 7 ([3]; 40 mg/kg intraperitoneal): 100%
Mice Surviving on Day 7 ([3]; 120 mg/kg intraperitoneal): 0%

OCc1cc(-c2c[nH]c3ccc(Br)cc23)nc2cc(F)ccc12 [Example 447]
MIC S. pneu (Streptococcus pneumoniae; 37° C., about 16 hours): < 7 µg/mL
MIC MRSA ([1]; 37° C., about 16 hours): < 7 µg/mL
MIC VREF ([2]; 37° C., about 16 hours): <7 µg/mL
Mice Surviving on Day 7 ([3]; 40 mg/kg intraperitoneal): 100%
Mice Surviving on Day 7 ([3]; 120 mg/kg intraperitoneal): 80%

NCCNC(=O)c1cc(-c2c[nH]c3ccc(Br)cc23)nc2cc(Cl)ccc12 [Example 316]
MIC (Streptococcus pneumoniae; S. pneu, overnight 37° C.): < 7 µg/mL
MIC ([1]; overnight 37° C.): < 7 µg/mL
MIC ([2]; VREF, overnight 37° C.): < 7 µg/mL
Mice Surviving on Day 7 ([3]; 40 mg/kg intraperitoneal): 80%
Mice Surviving on Day 7 ([3]; 120 mg/kg intraperitoneal): 0%

NCc1ccc(CNC(=O)c2cc(-c3c[nH]c4ccc(Br)cc34)nc3ccc(C#CCN4CCCCC4)cc23)cc1 [compound 1]
MIC (S. aureus (ATCC 25923)): < 7 µg/mL
MIC (S. aureus (ATCC 29213)): < 7 µg/mL
MIC (S. aureus (ATCC 33591)): < 7 µg/mL
MIC (S. aureus (ATCC 33592)): < 7 µg/mL

CC(C)CNC(=O)c1cc(-c2c[nH]c3ccc(Br)cc23)nc2ccc(C#CCN3CCCCC3)cc12 [compound 9]
MIC (S. aureus (ATCC 25923)): < 25 µg/mL
MIC (S. aureus (ATCC 29213)): < 7 µg/mL
MIC (S. aureus (ATCC 33591)): < 7 µg/mL
MIC (S. aureus (ATCC 33592)): > 25 µg/mL

COc1ccc2nc(-c3c[nH]c4ccc(Cl)cc34)ccc2c1 [Example 417]
Mice Surviving on Day 7 ([3]; 40 mg/kg intraperitoneal): 100%
Mice Surviving on Day 7 ([3]; 120 mg/kg intraperitoneal): 100%

COc1ccc(NC(=O)c2cc(-c3c[nH]c4ccc(Br)cc34)nc3ccc(C#CCN4CCCCC4)cc23)cc1 [compound 2]
MIC (S. aureus (ATCC 25923)): < 7 µg/mL
MIC (S. aureus (ATCC 29213)): < 7 µg/mL
MIC (S. aureus (ATCC 33591)): < 7 µg/mL
MIC (S. aureus (ATCC 33592)): < 7 µg/mL

Cn1cc(-c2cc(C(=O)NCCN)c3cc(C#CCN4CCCCC4)ccc3n2)c2cc(Br)ccc21 [Example 379]
Mice Surviving on Day 7 ([3]; 40 mg/kg intraperitoneal): 40%
Mice Surviving on Day 7 ([3]; 120 mg/kg intraperitoneal): 0%

Cn1cc(-c2cc(C(=O)NCCN)c3cc(I)ccc3n2)c2cc(Br)ccc21 [Example 359]
MIC (Streptococcus pneumoniae; S. pneu, overnight 37° C.): < 7 µg/mL
MIC ([1]; overnight 37° C.): < 7 µg/mL
MIC ([2]; VREF, overnight 37° C.): < 7 µg/mL
Mice Surviving on Day 7 ([3]; 40 mg/kg intraperitoneal): 100%
Mice Surviving on Day 7 ([3]; 120 mg/kg intraperitoneal): 100%

Cc1ccc2[nH]cc(-c3cc(Cl)c4ccc(Cl)cc4n3)c2c1 [Example 474]
MIC (Streptococcus pneumoniae; 37° C., about 16 hours): < 7 µg/mL
MIC ([1]; 16 h, 37° C., about 16 hours): < 7 µg/mL
MIC ([2]; 16 h, 37° C., about 16 hours): < 25 µg/mL
Mice Surviving on Day 7 ([3]; 40 mg/kg intraperitoneal): 100%
Mice Surviving on Day 7 ([3]; 120 mg/kg intraperitoneal): 100%

Fc1ccc2c(-c3cc(Cl)c4ccc(Cl)cc4n3)c[nH]c2c1 [Example 461]
MIC (Streptococcus pneumoniae; 37° C., about 16 hours): < 7 µg/mL
MIC ([1]; 16 h, 37° C., about 16 hours): < 7 µg/mL
MIC ([2]; 16 h, 37° C., about 16 hours): < 7 µg/mL
Mice Surviving on Day 7 ([3]; 40 mg/kg intraperitoneal): 100%
Mice Surviving on Day 7 ([3]; 120 mg/kg intraperitoneal): 100%

COc1ccc2nc(-c3c[nH]c4ccc(Cl)cc34)ccc2c1 [compound 5]
MIC (S. aureus (ATCC 25923)): < 7 µg/mL
MIC (S. aureus (ATCC 29213)): < 7 µg/mL
MIC (S. aureus (ATCC 33591)): < 7 µg/mL
MIC (S. aureus (ATCC 33592)): < 7 µg/mL
